“Also recorded” adds a separate entry of the source.
Legend:
[1] = system: effector CD8+ T cells, NK cells, Treg cells; assay: Effect on mouse immune cells in spleen; format: in vivo, C57BL/6 mice; conditions: 3rd to 14th days after i.v. administration (3, 6 or 12 mg/kg), vs PBS
Procedure: On days 1, 3, 5, 7, and 14 after the injection, the spleen tissues were removed from the mice of each group. Thereafter, for the spleen tissue, the numbers of effector CD8+ T cells, NK cells, and Treg cells were calculated with FACS analysis using respective antibodies, and proportions of effector CD8+ T cells and NK cells with respect to Treg cells were respectively calculated. The information on the antibodies used in each cell analysis is as follows:
Effector CD8+ T cell: PB anti-mouse CD3ε antibody (Biolegend, #155612; KT3.1.1), FITC anti-mouse CD8α antibody (BD, #553031, 53-6.7), PE/Cy7 anti-mouse CD44 antibody (Biolegend, #103030; IM7), APC anti-mouse CD122 antibody (Biolegend, #123214; TM-β1)
NK cell: PB anti-mouse CD3ε antibody (Biolegend, #155612; KT3.1.1), PE anti-mouse NK-1.1 (Biolegend, #108708; PK136)
Treg cell: FITC anti-mouse CD3 antibody (Biolegend, #100204; 17A2), PB anti-mouse CD4 antibody (Biolegend, #100531; RM4-5), PE anti-mouse CD25 antibody (Biolegend, #102008; PC61), APC anti-mouse Foxp3 antibody (Invitrogen, #FJK-16s, 17-5773-82).

CT-26 cancer cell line [2] = assay: mGI101 in mice transplanted with CT-26 (Exp. Ex. 19); format: in vivo, BALB/c mice
CT-26 cancer cell line [3] = assay: GI101 in mice transplanted with CT-26 (Exp. Ex. 16.1); format: in vivo, BALB/c mice
Procedure: The tumor size was measured daily.

[4] = system: CD8+ T cells and CD4+/FoxP3+ Treg cells; assay: Proliferation of CD8+ T cells and Treg cells in PBMCs (Exp. Ex. 10); format: cell-based, human
Procedure: Human PBMCs were purchased from Allcells (Lot #3014928, USA). […] CellTrace CFSE dye was used, which was reacted with the human PBMCs under a light-blocking condition at […] for 20 minutes. The cells were labeled with CFSE by being reacted with 1 μM CellTrace CFSE dye at 37° C. for 20 minutes. CFSE not bound to the cells was removed by being reacted for 5 minutes with a culture medium having a 5-fold volume of the staining reaction solution and then by being centrifuged at 1,300 rpm for 5 minutes. The CFSE-labeled PBMCs were resuspended in the culture medium (RPMI1640 medium containing 10% fetal bovine serum, 10 mM HEPES, 100 U/ml penicillin/streptomycin, 1 mM sodium pyruvate, 55 μM 2-mercaptoethanol, 1 mM non-essential amino acid, and 2 mM L-glutamine), and then added to a 96-well microplate at 1×10^5 cells per well.
The incubated cells were examined for their degree of proliferation by measuring, with FACS analysis using anti-human CD4-PE antibody (BioLegend, USA), anti-human CD8-PE/Cy7 antibody (BioLegend, USA), and anti-human FoxP3-APC antibody (BioLegend, USA), a proportion of CD8+ T cells that had not been labeled with CFSE.

IL-2Rβ = molecular target: T1, IL-2Rβ (Homo sapiens, UniProt P14784); assay: Binding to IL-2Rβ (Octet, Ni-NTA biosensor); conditions: as compared with GI101w and Proleukin
T1 construct: purchased Acro CD2-H5221
T1 sequence (P14784 27-551): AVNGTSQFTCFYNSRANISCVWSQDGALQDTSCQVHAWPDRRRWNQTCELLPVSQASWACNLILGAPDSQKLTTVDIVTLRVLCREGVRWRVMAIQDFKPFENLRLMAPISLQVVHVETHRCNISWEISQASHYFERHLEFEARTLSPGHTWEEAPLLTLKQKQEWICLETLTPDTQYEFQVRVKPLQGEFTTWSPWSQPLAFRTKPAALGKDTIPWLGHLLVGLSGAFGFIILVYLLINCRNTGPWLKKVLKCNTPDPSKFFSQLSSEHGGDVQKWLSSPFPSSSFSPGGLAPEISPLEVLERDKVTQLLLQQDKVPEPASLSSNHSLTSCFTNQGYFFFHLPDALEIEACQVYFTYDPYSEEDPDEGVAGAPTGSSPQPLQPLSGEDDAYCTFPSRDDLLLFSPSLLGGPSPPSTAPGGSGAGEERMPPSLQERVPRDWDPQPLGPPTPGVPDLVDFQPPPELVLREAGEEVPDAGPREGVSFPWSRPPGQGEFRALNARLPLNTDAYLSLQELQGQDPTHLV
Procedure: The binding ability for IL-2Rα was measured using the AR2G biosensor, and the binding ability for IL-2Rβ was measured using the Ni-NTA biosensors (Nickel charged Tris-NTA, Ni-NTA Biosensors, ForteBio, 18-5101).
Meanwhile, a ligand (IL-2Rβ-His Tag, Acro, Cat: CD2-H5221) to be attached to the Ni-NTA biosensor was diluted with 1×Ni-NTA kinetic buffer to a concentration of 5 μg/ml. The diluted ligand was loaded on the Ni-NTA biosensor for 600 seconds and fixed.
Thereafter, GI101, GI101w, or Proleukin (Novartis, hIL-2), at various concentrations, to be attached to the ligand was loaded thereon for 300 seconds. Then, binding thereof was measured and dissociation thereof was also measured for 300 seconds. Binding kinetics analysis was performed using Octet Data Analysis HT software ver. 10 provided by Pall Corporation. The results are illustrated in FIGS. 22 to 24.

[5] = system: NCl-H292 cancer cell line with human PBMCs; assay: T cell activity inhibition by cancer cells expressing PD-L1 and CTLA-4 (IFN-γ ELISA); format: cell-based; conditions: 50 nM, 3 days
Procedure: NCl-H292 cancer cell line expressing PD-L1 and CTLA-4 was cultured for 3 hours in a culture medium containing 10 μg/ml Mitomycin C (Sigma), and then Mitomycin C was removed by washing with the culture medium. Thereafter, 5×10^4 cells of the Mitomycin C-treated NCl-H292 cancer cell line were incubated with 1×10^5 cells of human PBMCs in a 96-well microplate. Here, treatment with 5 μg/ml of PHA (Sigma) was performed for T cell activity. […] After 3 days, the supernatant of the cell culture was collected and the amount of IFN-γ was quantified using an ELISA kit (Biolegend).
As a positive control, human PBMCs stimulated with PHA in the absence of the Mitomycin C-treated NCl-H292 cancer cell line were used; and as a negative control, human PBMCs stimulated with PHA in the presence of the Mitomycin C-treated NCl-H292 cancer cell line were used. An experimental method using the IFN-7 ELISA kit was carried out in the same manner as in Experimental Example 9.3.

Substance | numbers of CD8+ T cells and NK cells [1] | tumor volume / tumor size (CT-26 cancer cell line [2]; 6 mg/kg i.v., vs negative control) | tumor growth inhibition rate / anticancer efficacy (CT-26 cancer cell line [2]; compared with combination of mCD80 4.9 mg/kg and Fc-IL-2v (GI101C2) 2.8 mg/kg) | tumor inhibitory efficacy (CT-26 cancer cell line [2]; compared with respective mCD80 and IL-2v single formulations) | tumor inhibitory effect (CT-26 cancer cell line [3]; GI101 0.1 mg/kg, compared with anti-PD-1 antibody group (p<0.05)) | Tumor growth inhibition (CT-26 cancer cell line [3]; GI101 0.1 or 1 mg/kg, anti-PD-1 5 mg/kg, anti-CTLA-4 5 mg/kg i.v., vs negative control) | proportion of CD8+ T cells ([4]; anti-CD3ε 1 μg/ml, 7 days, compared with no stimulus, anti-CD3 antibody alone and GI101C1) | proliferation of CD4+/FoxP3+ Treg cells ([4]; compared with no stimulus and anti-CD3 antibody alone) | binding ability for IL-2Rβ (IL-2Rβ) | immune response inhibited by the cancer cell line overexpressing PD-L1 (IFN-γ) [5] | signaling of CTLA-4 expressed on effector T cells [5]
mGI101: fusion protein: mouse CD80, Ig hinge, Fc domain, linker, IL-2 variant (2M) (R38A, F42A); SEQ ID NO: 15 | significant increase | significant inhibition of tumor size | excellent tumor growth inhibition rate; also recorded: excellent anticancer efficacy | had tumor inhibitory efficacy |  |  |  |  |  |  | 
GI101: fusion protein: human CD80 fragment, Ig hinge, Fc domain, linker, IL-2 variant (2M) (R38A, F42A); SEQ ID NO: 9 |  |  |  |  | significant tumor inhibitory effect | significant tumor growth inhibition | significant increase | significant increase | high binding ability | effectively activated | inhibited

Source: patent publication US11857601B2, “Pharmaceutical composition for cancer treatment comprising fusion protein including IL-2 protein and CD80 protein and anticancer drug” (GI INNOVATION, INC., priority 2020, dated 2024)
